Key:
[1] = tested on: ChAT activity of basal forebrain cultures; test: Basal Forebrain ChAT Activity Assay; format: cell-based, rat
Method in brief: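 Basal forebrain neurons from E17–18 rat embryos were Dispase-dissociated and plated at 5×10^4 cells/well on poly-ornithine/laminin. Cultures were kept in serum-free N2 medium with 0.05% BSA at 37° C. ChAT activity was measured 5 days after plating as the read-out for compound-induced increase.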

[2] = tested on: chick dorsal root ganglion neurons; test: DRG Neurite Outgrowth Assay; format: cell-based; conditions: compound concentration 200 nM; 48 hours
Experimental: Fused pyrrolocarbazoles promoted nerve fiber (i.e., neurite) outgrowth in explant (i.e., primary) cultures of chick dorsal root ganglion neurons. Dorsal root ganglion (i.e., DRG) nerve fiber outgrowth was increased when a fused pyrrolocarbazole was added to cultures at a concentration of 200 nM (Table IV). Control cultures consisted of: 1) no added NGF or fused pyrrolocarbazole ("Control"), or 2) 50 ng/ml NGF, a neurotrophin known to promote neurite extension in DRG cultures ("NGF").
Methods: Dorsal root ganglia were dissected from chick embryos (embryonic day 9) and individual ganglia were plated on poly-1-ornithine and laminin coated plates. A fused pyrrolocarbazole or 50ng/ml NGF was each added to independent cultures after allowing a 1-2 hour cell attachment period. Explants were cultured for 48 hours in serum-free N2 medium supplemented with 0.05% BSA (Bottenstein et al., PNAS USA 76:514-517 (1979)). Cultures were maintained at 37° C. in a humidified atmosphere, 5% CO2 /95% air. Nerve fiber outgrowth was assessed by the density and length of neurites. It should be apparent to those skilled in the art that neurite extension assays are semi-quantitative and involve a visual comparison between control and experimental neuronal cell cultures (Alberts et al., Molecular Biology of the Cell, 2ed. Garland Publishing, Inc., New York (1989).

Question: For `O=C1NCc2c1c1c(c3[nH]c4ccccc4c23)Cc2ccccc2-1` [Compound I-2], which “ChAT Activity (% of Control)” value ([1]; 100 nM) is on record?
Answer: inactive

Question: What about the “ChAT Activity (% of Control)” value ([1]; 1000 nM) of the same compound?
Answer: inactive

Question: And the activity at 0.25 µM ([1]; Rattus norvegicus, 120 h, 250 nM, read-out: ChAT Activity (% of Control))?
Answer: 137%

Question: And the activity at 0.5 µM ([1]; Rattus norvegicus, 120 h, 500 nM, read-out: ChAT Activity (% of Control))?
Answer: 137%

Question: What about the “DRG Neurite Outgrowth” value [2] of the same compound?
Answer: modest to dense outgrowth of neurites
